Laboratory results published in PMC2633282, “A P2X receptor from the tardigrade species Hypsibius dujardini with fast kinetics and sensitivity to zinc and copper” (BMC Evolutionary Biology, 2009).

Columns and labels:
Test in all cases: two-electrode voltage clamp, Xenopus oocytes
Assay type in all cases: cell-based
[1] = target: T1, HdP2X (Hypsibius dujardini, UniProt B8RGS2)
T1 construct: full-length, 480 residues, cDNA clone in pSPORT1; cRNA in Xenopus oocytes; P2X receptors are trimers
T1 sequence (B8RGS2 1-480): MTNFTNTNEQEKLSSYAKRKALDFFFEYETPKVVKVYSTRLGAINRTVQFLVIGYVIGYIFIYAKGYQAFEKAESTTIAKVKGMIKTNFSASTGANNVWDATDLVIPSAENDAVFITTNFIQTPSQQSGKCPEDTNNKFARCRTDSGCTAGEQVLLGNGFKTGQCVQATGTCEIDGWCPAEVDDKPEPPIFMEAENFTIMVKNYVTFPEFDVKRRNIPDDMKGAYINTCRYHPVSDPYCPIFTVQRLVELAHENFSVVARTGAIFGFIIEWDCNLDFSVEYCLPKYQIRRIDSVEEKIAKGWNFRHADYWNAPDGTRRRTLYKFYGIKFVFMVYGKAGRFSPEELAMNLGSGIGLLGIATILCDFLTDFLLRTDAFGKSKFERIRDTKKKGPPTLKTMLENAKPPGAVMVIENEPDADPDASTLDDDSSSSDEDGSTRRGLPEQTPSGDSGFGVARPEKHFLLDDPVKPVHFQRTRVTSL

[2] = target: T1, HdP2X; remark: listed apart in the source
[3] = target: T1, HdP2X; conditions: agonist; -60 mV; ND96 with Ba2+ for Ca2+, pH 7.5

EC50 [1]	IC50 [2]	SMILES	other results
44.5 µM		Nc1ncnc2c1ncn2[C@@H]1O[C@H](COP(=O)(O)OP(=O)(O)OP(=O)(O)O)[C@@H](O)[C@H]1O [ATP]	
12.2 µM		Nc1ncnc2c1ncn2[C@@H]1O[C@H](COP(=O)(O)OP(=O)(O)OP(=O)(O)O)[C@@H](OC(=O)c2ccc(C(=O)c3ccccc3)cc2)[C@H]1O [Bz-ATP, 2',3'-O-4-Benzoylbenzoyl ATP]	
	15 µM	Cc1nc(N=Nc2ccc(S(=O)(=O)O)cc2S(=O)(=O)O)c(COP(=O)(O)O)c(C=O)c1O [PPADS, pyridoxal-phosphate-6-azophenyl-2',4'-disulfonic acid]	
	22.6 µM	Cc1ccc(C(=O)Nc2ccc(S(=O)(=O)O)c3cc(S(=O)(=O)O)cc(S(=O)(=O)O)c23)cc1NC(=O)c1cccc(NC(=O)Nc2cccc(C(=O)Nc3cc(C(=O)Nc4ccc(S(=O)(=O)O)c5cc(S(=O)(=O)O)cc(S(=O)(=O)O)c45)ccc3C)c2)c1 [suramin]	
		Nc1ncnc2c1ncn2[C@@H]1O[C@H](COP(=O)(O)CP(=O)(O)OP(=O)(O)O)[C@@H](O)[C@H]1O [αβ-methylene ATP, α,β-methylene-adenosine 5'-triphosphate]	% of 100 μM ATP response at 100 μM [3]: < 50%
